From patent US9987278B2, “Pharmaceutical composition for treating FLT3 mutation-positive cancer, mutant FLT3 inhibitor and uses thereof” (FUJIFILM Corporation, priority 2014, dated 2018) come the findings set out here.

As usually defined, the GI50 is the concentration at which growth is held to half of that of the control. In general, pIC50 refers to −log10 of the IC50, conventionally taken in molar units.

pIC50: −log10 of the molar value. Bounds are passed on as bounds.

The test system of one test is 32D FLT3/FL cells. Description: Cell growth assay, FLT3/FLT3 ligand-coexpressing 32D cell line. It counts as cell-based. The note with it: Mus musculus, 48 h, FLT3/FL, 2 days with compound, read-out: GI50 value for growth of FLT3 protein-expressing 32D cells. Here is the method:
RPMI1640 and DMEM were purchased from Life Technologies or SIGMA. The 32D cells were obtained from RIKEN Bioresource Center, and cultured in the presence of 5% CO2 at 37° C. using an RPMI1640 medium containing 1 ng/mL mouse IL-3, 10% fetal bovine serum (FBS), 100 U/mL penicillin and […] streptomycin. The PLAT-E cells were kindly provided by Dr. Kitamura Toshio of Tokyo University and cultured in a DMEM medium containing 1 μg/mL puromycin, 10 μg/mL blasticidin S, 10% FBS, 100 U/mL penicillin and […] streptomycin. […] A pGEM-T vector, FuGENE6 and CellTiter 96 AQueous One Solution Cell Proliferation Assay were purchased from Promega Corporation.
(§1) Individual cells were seeded onto a 96-well plate (Becton, Dickinson and Company) at a density of 1000 to 10000 cells/well, and the cell culture was started at 37° C. in the presence of 5% CO2. On the next day, the compound diluted in 3-fold common ratio was added to each well, followed by further culturing for 2 days. Then, in order to evaluate the cell viability, a CellTiter 96 AQueous One SolutionReagent was added to each well according to the Promega Corporation's protocol, followed by culturing for 1 hour. […] In a case where the absorbance is insufficient, the absorbance was measured after performing the culturing for another 1 to 2 hours.

The next test deals with 32D FLT3 D835Y cells. Description: Cell growth assay, 32D FLT3 D835Y. The class given is cell-based. The note with it: Mus musculus, 48 h, FLT3 D835Y, 2 days with compound, read-out: GI50 value for growth of FLT3 protein-expressing 32D cells. Here is the method: (§2) After the virus-containing culture supernatant was added to the mouse hematopoietic precursor cell line 32D cells in the presence of 10 μg/mL polybrene, and the cells were cultured in the presence of 0.5 ng/mL mouse IL-3.
as §1

In the next test the test system is 32D FLT3 D835V cells. In words: Cell growth assay, 32D FLT3 D835V. It counts as cell-based. As to conditions: Mus musculus, 48 h, FLT3 D835V, 2 days with compound, read-out: GI50 value for growth of FLT3 protein-expressing 32D cells. On the procedure:
as §2, §1

A further test has as its system 32D FLT3 D835H cells. In words: Cell growth assay, 32D FLT3 D835H. It counts as cell-based. As to conditions: Mus musculus, 48 h, FLT3 D835H, 2 days with compound, read-out: GI50 value for growth of FLT3 protein-expressing 32D cells. On the procedure: as §2, §1
Another test deals with 32D FLT3 D835E cells. In words: Cell growth assay, 32D FLT3 D835E. The class given is cell-based. The note with it: Mus musculus, 48 h, FLT3 D835E, 2 days with compound, read-out: GI50 value for growth of FLT3 protein-expressing 32D cells. On the procedure: as §2, §1
The subject of another test is 32D FLT3 D835N cells. In words: Cell growth assay, 32D FLT3 D835N. The class given is cell-based. The note with it: Mus musculus, 48 h, FLT3 D835N, 2 days with compound, read-out: GI50 value for growth of FLT3 protein-expressing 32D cells. Here is the method: as §2, §1
In the next test the test system is 32D FLT3 D835Ins cells. In words: Cell growth assay, 32D FLT3 D835Ins. The class given is cell-based. As to conditions: Mus musculus, 48 h, FLT3 D835Ins (I836 to leucine and aspartic acid), 2 days with compound, read-out: GI50 value for growth of FLT3 protein-expressing 32D cells. Here is the method: as §2, §1
Another test relates to 32D FLT3 Y842C cells. Description: Cell growth assay, 32D FLT3 Y842C. As to conditions: Mus musculus, 48 h, FLT3 Y842C, 2 days with compound, read-out: GI50 value for growth of FLT3 protein-expressing 32D cells. It counts as cell-based. On the procedure: as §2, §1
The subject of the next test is 32D FLT3 Y842H cells. In words: Cell growth assay, 32D FLT3 Y842H. As to conditions: Mus musculus, 48 h, FLT3 Y842H, 2 days with compound, read-out: GI50 value for growth of FLT3 protein-expressing 32D cells. The class given is cell-based. On the procedure:
as §2, §1

Test [1] deals with FLT3 ITD-expressing 32D cells. In words: Cell growth assay, FLT3 ITD-expressing 32D cells. It counts as cell-based. As to conditions: Mus musculus, read-out: GI50 value for growth of FLT3 protein-expressing 32D cells. From the text: The ITD-mutant FLT3-expressing vector was constructed by introducing an ITD-mutant FLT3 gene (clone Mt2) described in Kiyoi H, et al., Leukemia, Vol. 12, pp. 1333 to 1337, 1998 into a pMXs-IP retroviral vector as a sequence having a FLAG sequence added to the C-terminal thereof.
(§3) The mutant FLT3 pMXs-IP retroviral vectors prepared according to the above-mentioned procedure were introduced into PLAT-E cells by using FuGENE6, followed by culturing for 2 days, and the culture supernatant containing viruses was collected. After the virus-containing culture supernatant was added to the mouse hematopoietic precursor cell line 32D cells in the presence of 10 μg/mL polybrene, and the cells were cultured in the presence of 0.5 ng/mL mouse IL-3. […]
(§4) Individual cells were seeded onto a 96-well plate (Becton, Dickinson and Company) at a density of 1000 to 10000 cells/well, and the cell culture was started at 37° C. in the presence of 5% CO2. […] Thereafter, the absorbance (OD=492 nm) was measured using an MPR-A4i II microplate reader (Tosoh Corporation). In a case where the absorbance is insufficient, the absorbance was measured after performing the culturing for another 1 to 2 hours. […]

Test [2] relates to FLT3 ITD.D835Y-expressing 32D cells. Description: Cell growth assay, FLT3 ITD.D835Y-expressing 32D cells. It counts as cell-based. The note with it: Mus musculus, read-out: GI50 value for growth of FLT3 protein-expressing 32D cells.
Excerpt: The ITD.D835Y-mutant FLT3-expressing vector was constructed by replacing a sequence containing aspartic acid 835 cleaved by Sphl, in the C-terminal FLAG sequence-added ITD-mutant FLT3 gene inserted into a pGEM-T vector, with the corresponding sequence of the C-terminal FLAG sequence-added D835Y-mutant FLT3 gene inserted into a pGEM-T vector, and then inserting the whole length of C-terminal FLAG sequence-added ITD.D835Y-mutant FLT3 sequence into a pMXs-IP retroviral vector.
as §3, §4

Test [3] relates to FLT3 ITD.Y842C-expressing 32D cells. Description: Cell growth assay, FLT3 ITD.Y842C-expressing 32D cells. The class given is cell-based. The note with it: Mus musculus, read-out: GI50 value for growth of FLT3 protein-expressing 32D cells.
Excerpt: (§5) The ITD.Y842C-mutant or ITD.Y842H-mutant FLT3-expressing vector was constructed by introducing Y842C and Y842H mutations into the C-terminal FLAG sequence-added ITD-mutant FLT3 gene inserted into a pGEM-T vector as a template, using the primers shown below and according to the protocol of a QuikChange Site-Directed Mutagenesis Kit (Stratagene Corporation), and then inserting the whole length of the ITD.Y842-mutant FLT3 gene into a pMXs-IP retroviral vector. Introduced mutations were confirmed by sequence analysis.
(§6) The mutant FLT3 pMXs-IP retroviral vectors prepared according to the above-mentioned procedure were introduced into PLAT-E cells by using FuGENE6, followed by culturing for 2 days, and the culture supernatant containing viruses was collected. […]
as §4

The subject of test [4] is FLT3 ITD.Y842H-expressing 32D cells. In words: Cell growth assay, FLT3 ITD.Y842H-expressing 32D cells. It counts as cell-based. As to conditions: Mus musculus, read-out: GI50 value for growth of FLT3 protein-expressing 32D cells.
Excerpt: as §5, §6, §4

Test [5] has as its target mutant FLT3 protein (FLT3 D835Y) (Homo sapiens (Human), UniProt P36888, D835Y). In words: Mutant FLT3 (FLT3 D835Y) enzyme inhibition assay. The class given is biochemical. The note with it: ATP 15 μmol/L, read-out: IC50 value for an enzymatic activity of a mutant FLT3 protein.

As for `CCCNc1nc(Nc2ccc(C#N)cc2)ncc1C#CCCCNC(=O)[C@H](C)N(C)C(=O)/C=C/CN(C)C` [Compound 38], the concentration for 50% growth inhibition (GI50) in the test with 32D FLT3/FL cells was 1 to 10 nM; in the test on 32D FLT3 D835Y cells, less than 1 nM; with 32D FLT3 D835V cells, less than 1 nM; in the test with 32D FLT3 D835H cells it was 1 to 10 nM; with 32D FLT3 D835E cells it was 1 to 10 nM; with 32D FLT3 D835N cells, 1 to 10 nM. Further, the concentration for 50% growth inhibition (GI50) (with 32D FLT3 D835Ins cells; in the test on 32D FLT3 Y842C cells; in the test on 32D FLT3 Y842H cells; in [1]; in [2]; in test [3]) was 1 to 10 nM each time. In addition, the GI50 in test [4] is less than 1 nM.
`C[C@@H](C(=O)N[C@H]1C[C@@H](C#Cc2cnc(Nc3ccc(F)cc3)nc2NC2CC2)C1)N(C)C(=O)/C=C/CN(C)C` [Compound 40]: in test [5], the pIC50 is more than 9.00. Besides, the 50% growth inhibitory concentration (GI50) was less than 1 nM with 32D FLT3/FL cells; less than 1 nM in the test on 32D FLT3 D835Y cells; less than 1 nM in the test on 32D FLT3 D835V cells; 1 to 10 nM in the test on 32D FLT3 D835H cells; less than 1 nM with 32D FLT3 D835E cells; less than 1 nM with 32D FLT3 D835N cells. In addition, the concentration for 50% growth inhibition (GI50) was less than 1 nM in the test on 32D FLT3 D835Ins cells, 1 to 10 nM with 32D FLT3 Y842C cells and 1 to 10 nM with 32D FLT3 Y842H cells.
